Test results as given in patent US20030130799A1, “Structure/properties correlation with membrane affinity profile” (priority 2001, published 2003).
Like-named read-outs stand apart in the source and are kept apart here.

Legend:
[1] = cited from earlier work; for Volume of Distribution (Ref.) category in brackets: class of the reference value; for Vd Observed: Table 2, 70-kg patient assumed
[2] = test system: plasma proteins; conditions: cited from earlier work; for Protein Binding Observed: Table 3
[3] = cited from earlier work; for Clearance (Ref.): Table 5, Study 1, category; for total body clearance Observed: Table 4
[4] = IAM chromatography membrane affinity (κ′) on esterIAM.PE C10/C3 column; conditions: for LOG PE (log κ′ on esterIAM.PE C10/C3): 15% acetonitrile in 0.01M PBS buffer (pH 7.4) mobile phase
[5] = IAM chromatography membrane affinity (κ′) on esterIAM.PS C10/C3 column; conditions: for Log PS (log κ′ on esterIAM.PS C10/C3): 15% acetonitrile in 0.01M PBS buffer (pH 7.4) mobile phase
[6] = Prediction of clearance from IAM membrane affinity standard curve; design: species or system human; conditions: Table 4; predicted using IAM k′ data
[7] = test system: plasma proteins; assay: Prediction of protein binding from IAM membrane affinity standard curve; design: species or system human; conditions: Table 3; predicted using IAM k′ data (FIG. 20)
[8] = Prediction of volume of distribution from IAM membrane affinity standard curve; conditions: Table 2; predicted using IAM k′ data (FIG. 19)
[9] = known ADME properties of the parent compound
[10] = column volumes of mobile phase needed to elute

In the case of `O=C(NCC1CCCCN1)c1cc(OCC(F)(F)F)ccc1OCC(F)(F)F` (stereo not shown) [flucainide], the “Volume of Distribution (L) (Ref.)” value ([1]; Table 6, Study 2) is listed as 343 L and the “% Protein Binding (Ref.)” value ([2]; Table 6, Study 2) is listed as 61%.

In the case of `O=C1CN=C(c2ccccc2)c2cc([N+](=O)[O-])ccc2N1` [nitrazepam], the “Clearance (Ref.)” value [3] is given as “low”, the “Volume of Distribution (L) (Ref.)” value ([1]; Table 5, Study 1) is given as 133 L and the “Volume of Distribution (Ref.) category in brackets” value ([1]; Table 5, Study 1) is given as “(high) (“high” (70-250 L))”.

In the case of `CCCC(=O)Nc1ccc(OCC(O)CNC(C)C)c(C(C)=O)c1` (stereo not shown) [acebutolol], the “Volume of Distribution (L) (Ref.)” value ([1]; Table 6, Study 2) is listed as 84 L.

For `CNC(=C[N+](=O)[O-])NCCSCc1ccc(CN(C)C)o1` [Ranitidine], the “LOG PE (log κ′ on esterIAM.PE C10/C3)” value [4] is listed as 0.15, the “Vd Observed” value [1] is listed as 91 L and the “Log PS (log κ′ on esterIAM.PS C10/C3)” value [5] is listed as 0.83. For the same molecule, the “Protein Binding Observed” value [2] was 15.

In the case of `CC(CCc1ccccc1)NCC(O)c1ccc(O)c(C(N)=O)c1` (stereo not shown) [labetalol], the “% Protein Binding (Ref.)” value ([2]; Table 6, Study 2) is listed as 50%.

For `CN1C(=O)CN=C(c2ccccc2F)c2cc([N+](=O)[O-])ccc21` [flunitrazepam], the “% Protein Binding (Ref.)” value ([2]; Table 5, Study 1) is given as 77%.

For `CC(C)(C)NCC(O)COc1cccc2c1CC(O)C(O)C2` (stereo not shown) [nadolol], the “Volume of Distribution (L) (Ref.)” value ([1]; Table 6, Study 2) is given as 133 L and the “% Protein Binding (Ref.)” value ([2]; Table 6, Study 2) is given as 20%.

For `CC(C)(C)NCC(O)c1cc(O)cc(O)c1` (stereo not shown) [terbutaline], the “Volume of Distribution (L) (Ref.)” value ([1]; Table 6, Study 2) is listed as 126 L and the “% Protein Binding (Ref.)” value ([2]; Table 6, Study 2) is listed as 20%.

In the case of `O=C1CN=C(c2ccccc2Cl)c2cc([N+](=O)[O-])ccc2N1` [clonazepam], the “Clearance (Ref.)” value [3] is given as “low”, the CL [3, 9] is given as 0.109 L/min and the “Volume of Distribution (L) (Ref.)” value ([1]; Table 5, Study 1) is given as 210 L. For the same molecule, the Vd [1, 9] was 224 L, the “% Protein Binding (Ref.)” value ([2]; Table 5, Study 1) was 86% and the Protein binding [2, 9] was 86%.

For `COc1ccc([C@@H]2Sc3ccccc3N(CCN(C)C)C(=O)[C@@H]2OC(C)=O)cc1` [Diltiazem], the “LOG PE (log κ′ on esterIAM.PE C10/C3)” value [4] is given as 1.87, the “total body clearance Observed” value [3] is given as 0.84 and the “Vd Observed” value [1] is given as 217 L. For the same molecule, the “Log PS (log κ′ on esterIAM.PS C10/C3)” value [5] was 2.54, the “total body clearance Predicted” value [6] was “HIGH > 0.327 (HIGH > 0.327)” and the “Protein Binding Observed” value [2] was 78.

For `COCCc1ccc(OCC(O)CNC(C)C)cc1` (stereo not shown) [metoprolol], the “Volume of Distribution (L) (Ref.)” value ([1]; Table 6, Study 2) is given as 294 L.

In the case of `CCCCC1C(=O)N(c2ccccc2)N(c2ccccc2)C1=O` [phenylbutazone], the “Volume of Distribution (L) (Ref.)” value ([1]; Table 6, Study 2) is given as 7 L.

For `Nc1nnc(-c2cccc(Cl)c2Cl)c(N)n1` [Lamotrigine], the “Vd Observed” value [1] is listed as 91 L, the “Log PS (log κ′ on esterIAM.PS C10/C3)” value [5] is listed as 0.96 and the “total body clearance Predicted” value [6] is listed as “LOW < 0.327 (LOW < 0.327)”. For the same molecule, the “Protein Binding Observed” value [2] was 55.

For `CC(C)NCC(O)COc1cccc2ccccc12` (stereo not shown) [propranolol], the “Volume of Distribution (L) (Ref.)” value ([1]; Table 6, Study 2) is listed as 301 L.

For `CCCN(CCC)CCc1cccc2c1CC(=O)N2` [Ropinirole], the “Protein Binding Predicted” value [7] is given as 40-90, the “Vd Observed” value [1] is given as 525 L and the “total body clearance Predicted” value [6] is given as “HIGH > 0.327 (HIGH > 0.327)”. The “Vd Predicted” value [8] was “VERY HIGH (>250 L) (VERY HIGH (>250 L))” and the “Protein Binding Observed” value [2] was 68.

In the case of `CNCCC(Oc1ccc(C(F)(F)F)cc1)c1ccccc1` (stereo not shown) [fluoxetine], the “Volume of Distribution (L) (Ref.)” value ([1]; Table 6, Study 2) is given as 2450 L and the “% Protein Binding (Ref.)” value ([2]; Table 6, Study 2) is given as 94%.

For `COc1cc(Cc2cnc(N)nc2N)cc(OC)c1OC` [trimethoprim], the “κ′ on the esterIAM.PE C10/C3 column” value [4, 10] was 2, the “κ′ on the esterIAM.PS C10/C3 column” value [5, 10] was 10 and the “affinity for the esterIAM.PS C10/C3 column compared to the esterIAM.PE column” value ([5]; ratio of κ′ PS / κ′ PE) was about 5 times.

For `Nc1nc2c(ncn2COCCO)c(=O)[nH]1` [Acyclovir], the “LOG PE (log κ′ on esterIAM.PE C10/C3)” value [4] was −1.17.

For `Cc1cccc(C)c1OCC(C)N` (stereo not shown) [mexiletine], the “Volume of Distribution (L) (Ref.)” value ([1]; Table 6, Study 2) is given as 343 L and the “% Protein Binding (Ref.)” value ([2]; Table 6, Study 2) is given as 63%.

In the case of `Fc1ccc([C@@H]2CCNC[C@H]2COc2ccc3c(c2)OCO3)cc1` [Paroxetine], the “LOG PE (log κ′ on esterIAM.PE C10/C3)” value [4] is listed as 2.33, the “Protein Binding Predicted” value [7] is listed as “Greater than 90” and the “total body clearance Observed” value [3] is listed as 0.602. The “Vd Observed” value [1] was 1190 L, the “Log PS (log κ′ on esterIAM.PS C10/C3)” value [5] was 3.37 and the “total body clearance Predicted” value [6] was “HIGH > 0.327 (HIGH > 0.327)”. For the same molecule, the “Protein Binding Observed” value [2] was 95.

In the case of `O=C1Nc2ccc(Cl)cc2C(c2ccccc2Cl)=NC1O` (stereo not shown) [lorazepam], the “Clearance (Ref.)” value [3] is listed as “low”, the “Volume of Distribution (L) (Ref.)” value ([1]; Table 5, Study 1) is listed as 91 L and the “Volume of Distribution (Ref.) category in brackets” value ([1]; Table 5, Study 1) is listed as “(high) (“high” (70-250 L))”.
